Legend:
3T3-L1 cells = assay: Quantitative PCR of relative mRNA expression in cell culture samples; assay type: cell-based, Mouse; conditions: for Gapdh expression / Hk2 expression / Pfkfb3 expression: 62.5 µM for 24 h
Protocol: Mouse 3T3-L1 preadipocytes were maintained in proliferation medium containing DMEM supplemented with 10% (v/v) heat inactivated NBCS and 1% (v/v) penicillin-streptomycin at 37 °C with 5% CO2, humidified atmosphere. Cells were seeded in T-75 flasks at a density of 25×10^4 cells/flask. Cultures never became completely confluent according to the manufacturer's instructions. They were passaged using trypsin-EDTA solution once they reached 70-80% confluency. For differentiation, 3T3-L1 cells were seeded and after 24 h (day 1), cell differentiation was induced by changing the medium to high glucose DMEM containing 10% (v/v) heat inactivated FBS, 1% penicillin-streptomycin, 10 µg/mL insulin, 0.25 µM Dexamethasone (GAP), 0.5 mM IBMX (=differentiation medium I). On day 3, the medium was changed to high glucose DMEM containing 10% FBS, 1% penicillin- streptomycin, and 10 µg/mL insulin (=differentiation medium II). Thereafter, medium was changed every other day switching between differentiation medium I and differentiation medium II until day 12 or 23, when adipocytes were harvested. Control group preadipocytes were seeded at a higher density and harvested after two days. Test compounds were administered either at the initiation of differentiation, or after 15 days of differentiation and with every medium change. To determine the effect on preadipocyte differentiation, cells were seeded and after 24 h they were treated with neorogioldiol. Neorogioldiol was maintained in the culture medium throughout cell differentiation period. To determine the effect of neorogioldiol on mature adipocytes, cells were seeded and induced to differentiate for 14 days, then on day 15 neorogioldiol was added to the differentiation medium for 24 h before cells were harvested. Each compound used was diluted in a 90% carbowax™ 400, 10% (v/v) absolute ethanol solution serving as a control solvent. The final concentration in culture was 0.09% (v/v) carbowax and 0.01% (v/v) ethanol. Compounds were used at the following concentrations: neorogioldiol (1) 62.5µM and neorogioltriol (2) 25µM.
(§1) Adipocytes and preadipocytes were harvested using the TRI Reagent®. RNA isolation was carried out according to the manufacturer's instructions. The purified RNA was quantified using the Nanodrop micro-volume spectrophotometer and 500 ng of each sample were used as a template for reverse transcription. cDNA synthesis was performed using the PrimeScriptTM RT reagent Kit (TaKaRa, RR037A) according to manufacturer's instructions. The cDNA produced by the above described procedure was diluted and used as a template for two-step quantitative PCR in a StepOnePlus™ Real-Time PCR System (Applied Biosystems™, 4376600) for a maximum of 40 cycles, as follows: start step 95 °C for 3 min, repeat steps: 95 °C for 15 s and 60 °C for 30 s. Amplification was performed using KAPA SYBR® FAST Universal qPCR kit (Kapa Biosystems, KK4618) according to manufacturer's instructions. Relative quantitative analysis was accomplished calculating fold-changes of gene expression as 2-(ΔΔCt), where ΔCt is (Ct (gene of interest) - Ct (housekeeping gene)). Ppib was used as internal control gene in 3T3L1 cells and in the fat fraction of mice abdominal fat, Rps9 was used as internal control gene in the stromal vascular fraction of mice abdominal fat and Actb was used as internal control gene in liver samples. Table 1. List of primers used for quantitative real-time PCR analysis.

abdominal fat = assay: Quantitative PCR in fat fraction and stromal vascular fraction of abdominal fat; assay type: in vivo, C57BL/6 adult male mice
Protocol: as §1
(§2) All procedures were conducted in compliance with protocols approved by the Animal Care Committee of the University of Crete, School of Medicine (Facility number EL91-BIOexp-06), in conjunction with the Veterinary Department of the Region of Crete, Heraklion, Crete, Greece. C57BL/6 adult male mice were maintained in a 12 h day/night cycle and 21-23 °C conditions. Mice were provided with water and either normal fat diet, or high fat diet (60% energy from fat) ad libitum. All mice were weighed every 48 h.
(§3) Neorogioldiol was first dissolved in 90% carbowaxTM 400, 10% (v/v) absolute ethanol solution and then diluted 1:10 in water for injection. A dose of 0.25 mg neorogioldiol in a total volume of 200 µl was administered intraperitoneally every 48 h in mice in high fat + neorogioldiol group starting from day 1. 4-5 mice were used per group and each experiment was performed twice.
(§4) Abdominal fat lobes were weighed, washed in PBS, minced and dissolved with collagenase. They were incubated in 1.5mg/ml collagenase in 1% PBS-BSA, for 30 min at 37 °C. Next, homogenate was centrifuged at 800 rpm for 5 min at room temperature. The upper fatty phase, which contains the adipocytes, was collected and resuspended in TRI Reagent® and RNA isolation was carried out according to the manufacturer's instructions. The cell pellet, which is the stromal vascular fraction, was washed once with PBS and resuspended in TRI Reagent® for RNA isolation.

[1] = reference [12]; cited from earlier work
[2] = High fat diet-induced obesity mouse model (weight gain, abdominal fat, spleen weight, overall toxicity); assay type: in vivo; conditions: high fat diet mice
Protocol: as §2, §3, §4

3T3-L1 preadipocytes = assay: Seahorse XF cell metabolism analysis (extracellular acidification rate); assay type: cell-based, Mouse; conditions: 62.5 µM for 24 h
Protocol: Seahorse XF Cell Energy Phenotype Test Kit and Seahorse XF Cell Mito Stress Test Kit were used to measure oxygen consumption rate and extracellular acidification rate on a Seahorse Bioscience XF Analyzer (Agilent Technologies). 3T3-L1 preadipocytes were seeded at 7.5×10^3 per well in growth medium in XF 96 Cell Culture Microplate (Agilent Technologies) two days prior to assay. 24 h prior to the assay, medium was changed and compound 1 was added at concentration of 62.5 µM. The day of the assay, cells were washed once and media was replaced with XF Base Medium (pH 7.4) supplemented with 1 mM pyruvate, 2 mM glutamine and 10 mM glucose. The plate was placed in a 37 °C incubator without CO2 for one hour prior to the assay. Cells were washed a second time right before starting the experiment. After measuring basal oxygen consumption rate and extracellular acidification rate, oligomycin (1.0 µM) and FCCP (1.0 µM) were introduced in real time to measure oxygen consumption rate and extracellular acidification rate under stressed condition. For the baseline extracellular acidification rate the third out of the three baseline measurements was used, while for the stressed condition, the highest measurement after the injections was used. The metabolic potential is calculated as the percentage of stressed extracellular acidification rate to baseline extracellular acidification rate.

[3] = cells differentiated in the presence of compound, 12 days, 1 at 62.5 µM, 2 at 25 µM
[4] = differentiation in presence of serial concentrations 62.5, 31.25, 15.625, 7.81 and 3.9 µM, dose-dependent
[5] = mature adipocytes: differentiated 15 days, then 62.5 µM for 8 more days
[6] = high fat diet + neorogioldiol vs high fat diet mice
[7] = high fat diet + neorogioldiol vs untreated obese mice
[8] = intraperitoneal 0.25 mg/mouse every 48 h for 35 days, vs high fat diet without neorogioldiol

In the case of neorogioldiol, the Gapdh expression (3T3-L1 cells; adipocytes) is reported as “decreasing”, the Hk2 expression (3T3-L1 cells; adipocytes) is reported as “decreasing” and the Pfkfb3 expression (3T3-L1 cells; adipocytes) is reported as “decreasing”. The Adipoq expression levels (3T3-L1 cells; [3]) was “restricted the increase”, the “Dlkl mRNA expression” value (3T3-L1 cells; [3]) was “diminished” and the Lep expression levels (3T3-L1 cells; [3]) was “restricted the increase”. The Slc2a4 expression levels (3T3-L1 cells; [3]) was “restricted the increase”, the Lep levels (3T3-L1 cells; [4]) was “restricted the increase” and the Slc2a4 levels (3T3-L1 cells; [4]) was “restricted the increase”. For the same substance, the Adipoq expression (3T3-L1 cells; [5]) was “decreased the expression”, the Fabp4 expression (3T3-L1 cells; [5]) was “decreased the expression” and the Pparg expression (3T3-L1 cells; [5]) was “decreased the expression”. The Gapdh expression (3T3-L1 cells; preadipocytes) was “downregulated”, the Hk2 expression (3T3-L1 cells; preadipocytes) was “downregulated” and the Pfkfb3 expression (3T3-L1 cells; preadipocytes) was “downregulated”. For the same substance, the “Arg1 expression in the stromal vascular fraction” value (abdominal fat; [6]) was “downregulated”, the “Il10 expression in the stromal vascular fraction” value (abdominal fat; [6]) was “downregulated” and the “Adipoq expression in the fat fraction of abdominal fat” value (abdominal fat; [7]) was “lower levels”. For the same substance, the “Lep expression in the fat fraction of abdominal fat” value (abdominal fat; [7]) was “lower levels”, the anti-inflammatory activity [1] was “potent anti-inflammatory activity” and the “toxicity in vivo (overall)” value ([2]; 0.25 mg/mouse i.p. every 48 h for 35 days) was “did not exhibit any toxicity in vivo”. The abdominal fat mass [2, 8] was “reduced abdominal fat mass”, the weight gain [2, 8] was “suppressed weight gain” and the “basal levels of extracellular acidification rate” value (3T3-L1 preadipocytes) was “increasing basal levels”. For the same substance, the “metabolic potential (stressed to baseline extracellular acidification rate)” value (3T3-L1 preadipocytes; after oligomycin and FCCP) was “decreased the metabolic potential”.
